Measurements: patent US20100267561A1, “HERBICIDAL PYRIDAZINONE DERIVATIVES” (priority 2007, published 2010)

Experiments:
Format in all cases: in vivo
rice (Oryza sativa) = assay: Test B flooded paddy test plant response
Procedure, shortened: (§1)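 Step one: raise plants to 2 leaves. Step two: flood pots 3 cm over the soil and apply compound into the water, keeping this depth. Step three: after 13–15 greenhouse days, score visually versus controls, 0–100, where 100 means complete control.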

[1] = tested on: barnyardgrass (Echinochloa crus-galli); assay: Test B flooded paddy test plant response
Procedure, shortened: as §1

[2] = tested on: ducksalad (Heteranthera limosa); assay: Test B flooded paddy test plant response
Procedure, shortened: as §1

[3] = tested on: umbrella sedge (Cyperus difformis); assay: Test B flooded paddy test plant response
Procedure, shortened: as §1

[4] = tested on: barnyardgrass (Echinochloa crus-galli); assay: Test A pre-/postemergence plant response
Text: (§2) Seeds of species selected from barnyardgrass (Echinochloa crus-galli), large crabgrass (Digitaria sanguinalis), giant foxtail (Setaria faberi), blackgrass (Alopecurus myosuroides), canarygrass (Phalaris minor), morningglory (Ipomoea coccinea), pigweed (Amaranthus retroflexus), velvetleaf (Abutilon theophrasti), wheat (Triticum aestivum), and corn (Zea mays) were planted into a blend of loam soil and sand and treated preemergence with a directed soil spray using test chemicals formulated in a non-phytotoxic solvent mixture which included a surfactant. At the same time these species were also treated with postemergence applications of test chemicals formulated in the same manner.
(§3) Plants ranged in height from 2 to 10 cm and were in the one- to two-leaf stage for the postemergence treatment. Treated plants and untreated controls were maintained in a greenhouse for approximately 10 days, after which time all treated plants were compared to untreated controls and visually evaluated for injury. Plant response ratings, summarized in Table A, are based on a 0 to 100 scale where 0 is no effect and 100 is complete control. A dash (-) response means no test results.

[5] = tested on: giant foxtail (Setaria faberi); assay: Test A pre-/postemergence plant response
Text: as §2, §3

corn (Zea mays) = assay: Test A pre-/postemergence plant response
Text: as §2, §3

[6] = tested on: morningglory (Ipomoea coccinea); assay: Test A pre-/postemergence plant response
Text: as §2, §3

[7] = tested on: wheat (Triticum aestivum); assay: Test A pre-/postemergence plant response
Text: as §2, §3

[8] = tested on: velvetleaf (Abutilon theophrasti); assay: Test A pre-/postemergence plant response
Text: as §2, §3

[9] = tested on: pigweed (Amaranthus retroflexus); assay: Test A pre-/postemergence plant response
Text: as §2, §3

[10] = tested on: large crabgrass (Digitaria sanguinalis); assay: Test A pre-/postemergence plant response
Text: as §2, §3

[11] = Flood (flooded paddy test), 62 g ai/ha, scale 0 to 100, 0 no effect, 100 complete control
[12] = Flood (flooded paddy test), 250 g ai/ha, scale 0 to 100, 0 no effect, 100 complete control
[13] = Postemergence, 125 g ai/ha, 0 to 100 scale, 0 no effect, 100 complete control
[14] = Postemergence, 500 g ai/ha, 0 to 100 scale, 0 no effect, 100 complete control
[15] = Preemergence, 125 g ai/ha, 0 to 100 scale (0 no effect, 100 complete control)
[16] = Preemergence, 500 g ai/ha, 0 to 100 scale (0 no effect, 100 complete control)
[17] = Postemergence, 31 g ai/ha, 0 to 100 scale, 0 no effect, 100 complete control
[18] = Preemergence, 31 g ai/ha, 0 to 100 scale, 0 is no effect, 100 is complete control
[19] = Flood (flooded paddy test), 125 g ai/ha, scale 0 to 100, 0 no effect, 100 complete control
[20] = Flood, 31 g ai/ha, scale 0 to 100

SMILES: Cc1cc(-n2cc(Cl)cn2)ccc1-c1c(O)cnn(C)c1=O [Compound 60]
- Plant response rating, Rice (rice (Oryza sativa); [11]): 0
- Plant response rating, Rice (rice (Oryza sativa); [12]): 30
- Plant response rating, Barnyardgrass [1, 11]: 0
- Plant response rating, Barnyardgrass [1, 12]: 30
- Plant response rating, Ducksalad [2, 11]: 0
- Plant response rating, Ducksalad [2, 12]: 0
- Plant response rating, Sedge, Umbrella [3, 11]: 0
- Plant response rating, Sedge, Umbrella [3, 12]: 0
- Plant response rating, Barnyardgrass [4, 13]: 30
- Plant response rating, Barnyardgrass [4, 14]: 90
- Plant response rating, Barnyardgrass [4, 15]: 70
- Plant response rating, Barnyardgrass [4, 16]: 100
- Plant response rating, Foxtail, Giant [5, 13]: 50
- Plant response rating, Foxtail, Giant [5, 14]: 80
- Plant response rating, Foxtail, Giant [5, 15]: 80
- Plant response rating, Foxtail, Giant [5, 16]: 100
- Plant response rating, Corn (corn (Zea mays); [13]): 40
- Plant response rating, Corn (corn (Zea mays); [14]): 90
- Plant response rating, Corn (corn (Zea mays); [15]): 50
- Plant response rating, Corn (corn (Zea mays); [16]): 90
- Plant response rating, Morningglory [6, 13]: 0
- Plant response rating, Morningglory [6, 14]: 0
- Plant response rating, Morningglory [6, 15]: 0
- Plant response rating, Morningglory [6, 16]: 0
- Plant response rating, Wheat [7, 13]: 0
- Plant response rating, Wheat [7, 14]: 50
- Plant response rating, Wheat [7, 15]: 0
- Plant response rating, Wheat [7, 16]: 50
- Plant response rating, Velvetleaf [8, 13]: 0
- Plant response rating, Velvetleaf [8, 14]: 0
- Plant response rating, Velvetleaf [8, 15]: 0
- Plant response rating, Velvetleaf [8, 16]: 0
- Plant response rating, Pigweed [9, 13]: 0
- Plant response rating, Pigweed [9, 14]: 0
- Plant response rating, Pigweed [9, 15]: 0
- Plant response rating, Pigweed [9, 16]: 0
- Plant response rating, Crabgrass, Large [10, 13]: 20
- Plant response rating, Crabgrass, Large [10, 14]: 60
- Plant response rating, Crabgrass, Large [10, 15]: 20
- Plant response rating, Crabgrass, Large [10, 16]: 80

SMILES: Cc1cc(-c2ccc(Cl)cc2)nn1-c1c(OC(=O)N(C)C)cnn(C)c1=O [Compound 64]
- Plant response rating, Rice (rice (Oryza sativa); [11]): 0
- Plant response rating, Rice (rice (Oryza sativa); [12]): 0
- Plant response rating, Barnyardgrass [1, 11]: 0
- Plant response rating, Barnyardgrass [1, 12]: 0
- Plant response rating, Ducksalad [2, 11]: 0
- Plant response rating, Ducksalad [2, 12]: 0
- Plant response rating, Sedge, Umbrella [3, 11]: 0
- Plant response rating, Sedge, Umbrella [3, 12]: 0
- Plant response rating, Barnyardgrass [4, 17]: 0
- Plant response rating, Barnyardgrass [4, 13]: 10
- Plant response rating, Barnyardgrass [4, 18]: 0
- Plant response rating, Barnyardgrass [4, 15]: 0
- Plant response rating, Foxtail, Giant [5, 17]: 30
- Plant response rating, Foxtail, Giant [5, 13]: 80
- Plant response rating, Foxtail, Giant [5, 18]: 0
- Plant response rating, Foxtail, Giant [5, 15]: 50
- Plant response rating, Corn (corn (Zea mays); [17]): 0
- Plant response rating, Corn (corn (Zea mays); [13]): 60
- Plant response rating, Corn (corn (Zea mays); [18]): 0
- Plant response rating, Corn (corn (Zea mays); [15]): 30
- Plant response rating, Morningglory [6, 17]: 0
- Plant response rating, Morningglory [6, 13]: 0
- Plant response rating, Morningglory [6, 18]: 0
- Plant response rating, Morningglory [6, 15]: 0
- Plant response rating, Wheat [7, 17]: 0
- Plant response rating, Wheat [7, 13]: 0
- Plant response rating, Wheat [7, 18]: 0
- Plant response rating, Wheat [7, 15]: 0
- Plant response rating, Velvetleaf [8, 17]: 0
- Plant response rating, Velvetleaf [8, 13]: 0
- Plant response rating, Velvetleaf [8, 18]: 0
- Plant response rating, Velvetleaf [8, 15]: 0
- Plant response rating, Pigweed [9, 17]: 0
- Plant response rating, Pigweed [9, 13]: 0
- Plant response rating, Pigweed [9, 18]: 0
- Plant response rating, Pigweed [9, 15]: 0
- Plant response rating, Crabgrass, Large [10, 17]: 0
- Plant response rating, Crabgrass, Large [10, 13]: 40
- Plant response rating, Crabgrass, Large [10, 18]: 0
- Plant response rating, Crabgrass, Large [10, 15]: 50

SMILES: CCn1ncc(O)c(-c2cn(-c3ccc(Cl)cc3)nc2C)c1=O [Compound 65]
- Plant response rating, Rice (rice (Oryza sativa); [11]): 0
- Plant response rating, Rice (rice (Oryza sativa); [19]): 0
- Plant response rating, Rice (rice (Oryza sativa); [12]): 15
- Plant response rating, Rice (rice (Oryza sativa); [20]): 0
- Plant response rating, Barnyardgrass [1, 11]: 0
- Plant response rating, Barnyardgrass [1, 19]: 0
- Plant response rating, Barnyardgrass [1, 12]: 0
- Plant response rating, Barnyardgrass [1, 20]: 0
- Plant response rating, Ducksalad [2, 11]: 0
- Plant response rating, Ducksalad [2, 19]: 0
- Plant response rating, Ducksalad [2, 12]: 40
- Plant response rating, Ducksalad [2, 20]: 0
- Plant response rating, Sedge, Umbrella [3, 11]: 0
- Plant response rating, Sedge, Umbrella [3, 19]: 0
- Plant response rating, Sedge, Umbrella [3, 12]: 80
- Plant response rating, Sedge, Umbrella [3, 20]: 0
- Plant response rating, Barnyardgrass [4, 13]: 0
- Plant response rating, Barnyardgrass [4, 14]: 0
- Plant response rating, Barnyardgrass [4, 15]: 0
- Plant response rating, Barnyardgrass [4, 16]: 0
- Plant response rating, Foxtail, Giant [5, 13]: 0
- Plant response rating, Foxtail, Giant [5, 14]: 20
- Plant response rating, Foxtail, Giant [5, 15]: 0
- Plant response rating, Foxtail, Giant [5, 16]: 90
- Plant response rating, Corn (corn (Zea mays); [13]): 0
- Plant response rating, Corn (corn (Zea mays); [14]): 0
- Plant response rating, Corn (corn (Zea mays); [15]): 0
- Plant response rating, Corn (corn (Zea mays); [16]): 0
- Plant response rating, Morningglory [6, 13]: 0
- Plant response rating, Morningglory [6, 14]: 0
- Plant response rating, Morningglory [6, 15]: 0
- Plant response rating, Morningglory [6, 16]: 0
- Plant response rating, Wheat [7, 13]: 0
- Plant response rating, Wheat [7, 14]: 0
- Plant response rating, Wheat [7, 15]: 0
- Plant response rating, Wheat [7, 16]: 0
- Plant response rating, Velvetleaf [8, 13]: 0
- Plant response rating, Velvetleaf [8, 14]: 0
- Plant response rating, Velvetleaf [8, 15]: 0
- Plant response rating, Velvetleaf [8, 16]: 0
- Plant response rating, Pigweed [9, 13]: 0
- Plant response rating, Pigweed [9, 14]: 0
- Plant response rating, Pigweed [9, 15]: 0
- Plant response rating, Pigweed [9, 16]: 0
- Plant response rating, Crabgrass, Large [10, 13]: 0
- Plant response rating, Crabgrass, Large [10, 14]: 20
- Plant response rating, Crabgrass, Large [10, 15]: 0
- Plant response rating, Crabgrass, Large [10, 16]: 0
